From ChEMBL document CHEMBL6153040, “Discovery of the salicylaldehyde-based compound DDO-02267 as a lysine-targeting covalent inhibitor of ALKBH5” (Eur J Med Chem, 2025) come the findings set out here.

The target of assay [1] is T1, RNA demethylase ALKBH5 (Homo sapiens, UniProt Q6P6C2). The assay is described as follows: Binding affinity to ALKBH5 in human MOLM-13 cells assessed as protection of pronase-mediated protein degradation at 12.5 to 50 uM preincubated for 30 mins followed by protease addition and measured after 10 mins by DARTS method. It counts as cell-based. The following applies: dose 12.5-50 µM, time 40.0 min.
Target sequence in this assay (Q6P6C2 2-394 limits assumed): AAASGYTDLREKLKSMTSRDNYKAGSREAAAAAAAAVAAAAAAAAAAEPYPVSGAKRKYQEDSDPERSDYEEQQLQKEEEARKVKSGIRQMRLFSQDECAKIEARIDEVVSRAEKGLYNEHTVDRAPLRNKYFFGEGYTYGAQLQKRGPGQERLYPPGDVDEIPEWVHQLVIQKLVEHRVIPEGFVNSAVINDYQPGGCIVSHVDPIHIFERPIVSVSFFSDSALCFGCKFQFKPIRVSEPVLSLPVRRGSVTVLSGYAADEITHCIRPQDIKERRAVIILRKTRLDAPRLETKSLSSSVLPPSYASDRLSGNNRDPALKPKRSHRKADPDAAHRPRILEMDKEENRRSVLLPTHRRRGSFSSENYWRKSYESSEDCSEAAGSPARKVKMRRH

Assay [2] addresses T1, RNA demethylase ALKBH5. The assay is described as follows: Inhibition of ALKBH5 (66 to 292 residues) (unknown origin) extracted from Escherichia coli BL21 (DE3) cells using m6A ssDNA as substrate measured after 300 mins by fluorescence polarization assay.
Target sequence in this assay (Q6P6C2 whole entry): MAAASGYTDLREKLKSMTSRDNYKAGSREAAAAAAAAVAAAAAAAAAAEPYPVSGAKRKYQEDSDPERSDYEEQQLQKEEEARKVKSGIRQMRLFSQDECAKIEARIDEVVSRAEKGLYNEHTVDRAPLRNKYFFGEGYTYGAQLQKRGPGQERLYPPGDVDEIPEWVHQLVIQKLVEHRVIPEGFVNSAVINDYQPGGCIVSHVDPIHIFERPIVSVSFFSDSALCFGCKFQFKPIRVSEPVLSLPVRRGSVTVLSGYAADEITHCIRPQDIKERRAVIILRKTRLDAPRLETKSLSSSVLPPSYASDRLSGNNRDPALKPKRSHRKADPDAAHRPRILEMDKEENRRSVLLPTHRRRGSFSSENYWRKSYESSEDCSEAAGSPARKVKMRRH
A further assay has as its system MV4-11. The assay is described as follows: Downregulation of AXL mRNA expression levels in human MV4-11 cells at 10 to 80 uM incubated for 72 hrs by qRT-PCR analysis. The assay is classed as functional, cell-based. The following applies: dose 10-80 µM.
For assay [3], the system named is MOLM-13. The assay is described as follows: Induction of cell cycle arrest in human MOLM-13 cells assessed as accumulation of cells at S phase at 40 uM incubated for 72 hrs by flow cytometry analysis (reference value: 17.47 %). It counts as functional. (In general: A flow cytometer gives signals particle by particle.)
For assay [4], the system named is MOLM-13. The assay is described as follows: Induction of cell cycle arrest in human MOLM-13 cells assessed as accumulation of cells at G0/G1 phase at 80 uM incubated for 72 hrs by flow cytometry analysis (reference value: 65.53 %). It counts as functional.
Assay [5] relates to MOLM-13. The assay is described as follows: Induction of apoptosis in human MOLM-13 cells assessed as viable cells at 80 uM incubated for 72 hrs by Annexin V FITC/PI staining based flow cytometry analysis (reference value: 89.65%). It counts as functional. To be noted: read-out: Activity.
Assay [6] has as its target T1, RNA demethylase ALKBH5. The assay is described as follows: Inhibition of ALKBH5 (66 to 292 residues) (unknown origin) extracted from Escherichia coli BL21 (DE3) cells using m6A ssDNA as substrate at 5 uM incubated for 2 hrs by TBE-PAGE based restriction enzyme digestion assay.
Target sequence in this assay (Q6P6C2 2-394 limits assumed): as the sequence (Q6P6C2 2-394 limits assumed) above
For assay [7], the target named is Alpha-ketoglutarate-dependent dioxygenase FTO (Homo sapiens, UniProt Q9C0B1). The assay is described as follows: Induction of thermal stabilization of FTO (32 to 505 residues) (unknown origin) extracted from Escherichia coli BL21 (DE3) cells assessed as change in melting temperature by thermal shift assay.
Sequence of Alpha-ketoglutarate-dependent dioxygenase FTO (Q9C0B1 whole entry, looked up, the tested form may be a part): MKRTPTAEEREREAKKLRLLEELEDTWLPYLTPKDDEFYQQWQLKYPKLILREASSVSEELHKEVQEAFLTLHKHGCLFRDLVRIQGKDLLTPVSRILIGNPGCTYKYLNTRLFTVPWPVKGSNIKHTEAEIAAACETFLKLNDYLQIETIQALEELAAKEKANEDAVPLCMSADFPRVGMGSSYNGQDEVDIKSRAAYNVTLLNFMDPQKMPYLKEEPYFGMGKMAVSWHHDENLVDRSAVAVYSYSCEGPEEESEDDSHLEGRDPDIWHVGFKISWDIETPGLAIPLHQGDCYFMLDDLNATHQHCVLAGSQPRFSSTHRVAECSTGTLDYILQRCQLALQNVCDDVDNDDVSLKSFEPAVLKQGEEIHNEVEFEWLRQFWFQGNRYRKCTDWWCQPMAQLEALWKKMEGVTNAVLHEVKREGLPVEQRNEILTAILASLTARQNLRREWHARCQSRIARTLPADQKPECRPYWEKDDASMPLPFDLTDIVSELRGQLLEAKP

Activity calls are given as the source filed them. No cut-off for these calls is given here.

What is called IC50 is the concentration that inhibits the measured activity by half. A low value points to inhibition by little substance. One may read the ΔTm as the shift of the melting midpoint relative to a reference.

Consider `O=Cc1cc(S(=O)(=O)NC(=O)c2cc(C(=O)O)ccn2)c2ccccc2c1O`, for which the result at RNA demethylase ALKBH5 [1] and with MV4-11 was Active. Moreover, 0.2 µM corresponded to half-maximal inhibition against RNA demethylase ALKBH5 [2] (IC50). Besides, the Activity in the assay on MOLM-13 [3] turned out to be 5.67%; in the assay on MOLM-13 [4], 73.67%. Moreover, the viability at 80 µM with MOLM-13 [5] worked out at 77.6%. Also, the inhibition entry at RNA demethylase ALKBH5 [6] is “Active”. The thermal shift (ΔTm) in assay [7] is < 1 °C.
